Entries after “also recorded” stand apart in the source; their conditions may differ. *1 amine or outer side, *2 acyl side, *3 side chain or, on linkers, in order; H or OH if unused. Where a SMILES comes first, the peptide text is derived from it. [ ]: non-standard residue; d: D form. X2 = CC[C@H](C)C[C@H](C)C[C@H](C)C[C@H](N[*:1])C(=O)[*:2]; X1 = CC[C@@H](C)[C@@H](O[*:1])C(=O)[*:2]; NMeVal(β-OH) = CN[C@H](C(=O)O)C(C)(C)O; aIle = CC[C@@H](C)[C@H](N)C(=O)O; NMeV = CN[C@H](C(=O)O)C(C)C; Sar = CNCC(=O)O
test system: C. albicans SC5314 Flu^R; assay: Ex vivo model of fungal keratitis (porcine cornea); set-up: species or system Candida albicans

| Compound | antifungal activity (fungal growth/infection), in words |
| --- | --- |
| OC(Cn1cncn1)(Cn1cncn1)c1ccc(F)cc1F [Fluconazole, fluconazole] | did not inhibit the growth; also recorded: unable to inhibit the fungus |
| CC[C@H](C)C[C@H](C)C[C@H](C)C[C@@H]1NC(=O)[C@H](C(C)C)N(C)C(=O)[C@@H]([C@H](C)CC)OC(=O)[C@H](C(C)(C)O)N(C)C(=O)[C@H](CC(C)C)NC(=O)[C@H](C(C)C)N(C)C(=O)[C@H]([C@H](C)CC)NC(=O)[C@@H]2CCCN2C(=O)CN(C)C1=O [Compound 1, persephacin] (cyclo(L[NMeVal(β-OH)][X1][NMeV][X2][Sar]P[aIle][NMeV])) | inhibited the growth; also recorded: eliminated the fungus |
| C[C@@H]1C/C=C/C=C/C=C/C=C/[C@H](O[C@@H]2O[C@H](C)[C@@H](O)[C@H](N)[C@@H]2O)C[C@@H]2O[C@](O)(C[C@@H](O)C[C@H]3O[C@@H]3/C=C/C(=O)O1)C[C@H](O)[C@H]2C(=O)O [Natamycin, natamycin] | inhibited the growth; also recorded: reduced the fungal burden |
